Reference: paper PMC10949855 (Journal of veterinary pharmacology and therapeutics, 2022)

Tested on: healthy dogs
Assay: Sedation score
Type: in vivo, dogs (Beagles)
[1] = IV inhibitors, 0.4 mg/kg IV after CYP inhibitors, 0.5 hr
[2] = IV inhibitors, 0.4 mg/kg IV after CYP inhibitors, 1 hr
[3] = IV inhibitors, 0.4 mg/kg IV after CYP inhibitors, 1.5 hr
[4] = IV inhibitors, 0.4 mg/kg IV after CYP inhibitors, 2 hr
[5] = IV inhibitors, 0.4 mg/kg IV after CYP inhibitors, 3 hr
[6] = IV inhibitors, 0.4 mg/kg IV after CYP inhibitors, 4 hr
[7] = IV inhibitors, 0.4 mg/kg IV after CYP inhibitors, 5 hr
[8] = IV inhibitors, 0.4 mg/kg IV after CYP inhibitors, 6 hr
[9] = IV inhibitors, 0.4 mg/kg IV after CYP inhibitors, 7 hr
[10] = IV inhibitors, 0.4 mg/kg IV after CYP inhibitors, 8 hr
[11] = IV inhibitors, 0.4 mg/kg IV after CYP inhibitors, 9 hr
[12] = IV inhibitors, 0.4 mg/kg IV after CYP inhibitors, 10 hr
[13] = IV inhibitors, 0.4 mg/kg IV after CYP inhibitors, 11 hr
[14] = IV inhibitors, 0.4 mg/kg IV after CYP inhibitors, 12 hr
[15] = IV inhibitors, 0.4 mg/kg IV after CYP inhibitors, 24 hr

Oc1ccc2c(c1)[C@@]13CCCC[C@@]1(O)[C@@H](C2)N(CC1CCC1)CC3 [butorphanol]
5: number of dogs with sedation score 1 [5] | number of dogs with sedation score 1 (SC 0.4 mg/kg, 1.5 hr) | number of dogs with sedation score 1 (SC 0.4 mg/kg, 2 hr) | number of dogs with sedation score 1 (SC 0.4 mg/kg, 3 hr)
0: number of dogs with sedation score 0 [1] | number of dogs with sedation score 2 [1] | number of dogs with sedation score 3 [1] | number of dogs with sedation score 0 [2] | number of dogs with sedation score 2 [2] | number of dogs with sedation score 3 [2] | number of dogs with sedation score 0 [3] | number of dogs with sedation score 2 [3] | number of dogs with sedation score 3 [3] | number of dogs with sedation score 0 [4] | number of dogs with sedation score 3 [4] | number of dogs with sedation score 0 [5] | number of dogs with sedation score 3 [5] | number of dogs with sedation score 2 [6] | number of dogs with sedation score 3 [6] | number of dogs with sedation score 1 [7] | number of dogs with sedation score 2 [7] | number of dogs with sedation score 3 [7] | number of dogs with sedation score 1 [8] | number of dogs with sedation score 2 [8] | number of dogs with sedation score 3 [8] | number of dogs with sedation score 1 [9] | number of dogs with sedation score 2 [9] | number of dogs with sedation score 3 [9] | number of dogs with sedation score 1 [10] | number of dogs with sedation score 2 [10] | number of dogs with sedation score 3 [10] | number of dogs with sedation score 1 [11] | number of dogs with sedation score 2 [11] | number of dogs with sedation score 3 [11] | number of dogs with sedation score 1 [12] | number of dogs with sedation score 2 [12] | number of dogs with sedation score 3 [12] | number of dogs with sedation score 1 [13] | number of dogs with sedation score 2 [13] | number of dogs with sedation score 3 [13] | number of dogs with sedation score 1 [14] | number of dogs with sedation score 2 [14] | number of dogs with sedation score 3 [14] | number of dogs with sedation score 1 [15] | number of dogs with sedation score 2 [15] | number of dogs with sedation score 3 [15] | number of dogs with sedation score 0 (SC 0.4 mg/kg, 0.5 hr) | number of dogs with sedation score 2 (SC 0.4 mg/kg, 0.5 hr) | number of dogs with sedation score 3 (SC 0.4 mg/kg, 0.5 hr) | number of dogs with sedation score 0 (SC 0.4 mg/kg, 1 hr) | number of dogs with sedation score 2 (SC 0.4 mg/kg, 1 hr) | number of dogs with sedation score 3 (SC 0.4 mg/kg, 1 hr) | number of dogs with sedation score 0 (SC 0.4 mg/kg, 1.5 hr) | number of dogs with sedation score 3 (SC 0.4 mg/kg, 1.5 hr) | number of dogs with sedation score 0 (SC 0.4 mg/kg, 2 hr) | number of dogs with sedation score 3 (SC 0.4 mg/kg, 2 hr) | number of dogs with sedation score 2 (SC 0.4 mg/kg, 3 hr) | number of dogs with sedation score 3 (SC 0.4 mg/kg, 3 hr) | number of dogs with sedation score 2 (SC 0.4 mg/kg, 4 hr) | number of dogs with sedation score 3 (SC 0.4 mg/kg, 4 hr) | number of dogs with sedation score 2 (SC 0.4 mg/kg, 5 hr) | number of dogs with sedation score 3 (SC 0.4 mg/kg, 5 hr) | number of dogs with sedation score 2 (SC 0.4 mg/kg, 6 hr) | number of dogs with sedation score 3 (SC 0.4 mg/kg, 6 hr) | number of dogs with sedation score 1 (SC 0.4 mg/kg, 7 hr) | number of dogs with sedation score 2 (SC 0.4 mg/kg, 7 hr) | number of dogs with sedation score 3 (SC 0.4 mg/kg, 7 hr) | number of dogs with sedation score 1 (SC 0.4 mg/kg, 8 hr) | number of dogs with sedation score 2 (SC 0.4 mg/kg, 8 hr) | number of dogs with sedation score 3 (SC 0.4 mg/kg, 8 hr) | number of dogs with sedation score 1 (SC 0.4 mg/kg, 9 hr) | number of dogs with sedation score 2 (SC 0.4 mg/kg, 9 hr) | number of dogs with sedation score 3 (SC 0.4 mg/kg, 9 hr) | number of dogs with sedation score 1 (SC 0.4 mg/kg, 10 hr) | number of dogs with sedation score 2 (SC 0.4 mg/kg, 10 hr) | number of dogs with sedation score 3 (SC 0.4 mg/kg, 10 hr) | number of dogs with sedation score 1 (SC 0.4 mg/kg, 11 hr) | number of dogs with sedation score 2 (SC 0.4 mg/kg, 11 hr) | number of dogs with sedation score 3 (SC 0.4 mg/kg, 11 hr) | number of dogs with sedation score 1 (SC 0.4 mg/kg, 12 hr) | number of dogs with sedation score 2 (SC 0.4 mg/kg, 12 hr) | number of dogs with sedation score 3 (SC 0.4 mg/kg, 12 hr) | number of dogs with sedation score 1 (SC 0.4 mg/kg, 24 hr) | number of dogs with sedation score 2 (SC 0.4 mg/kg, 24 hr) | number of dogs with sedation score 3 (SC 0.4 mg/kg, 24 hr)
1: number of dogs with sedation score 2 [5] | number of dogs with sedation score 2 (SC 0.4 mg/kg, 1.5 hr) | number of dogs with sedation score 2 (SC 0.4 mg/kg, 2 hr) | number of dogs with sedation score 0 (SC 0.4 mg/kg, 3 hr)
6: number of dogs with sedation score 1 [1] | number of dogs with sedation score 1 [2] | number of dogs with sedation score 1 [3] | number of dogs with sedation score 0 [7] | number of dogs with sedation score 0 [8] | number of dogs with sedation score 0 [9] | number of dogs with sedation score 0 [10] | number of dogs with sedation score 0 [11] | number of dogs with sedation score 0 [12] | number of dogs with sedation score 0 [13] | number of dogs with sedation score 0 [14] | number of dogs with sedation score 0 [15] | number of dogs with sedation score 1 (SC 0.4 mg/kg, 0.5 hr) | number of dogs with sedation score 1 (SC 0.4 mg/kg, 1 hr) | number of dogs with sedation score 0 (SC 0.4 mg/kg, 7 hr) | number of dogs with sedation score 0 (SC 0.4 mg/kg, 8 hr) | number of dogs with sedation score 0 (SC 0.4 mg/kg, 9 hr) | number of dogs with sedation score 0 (SC 0.4 mg/kg, 10 hr) | number of dogs with sedation score 0 (SC 0.4 mg/kg, 11 hr) | number of dogs with sedation score 0 (SC 0.4 mg/kg, 12 hr) | number of dogs with sedation score 0 (SC 0.4 mg/kg, 24 hr)
1.5 to 2 h: time with moderate sedation or greater in at least 1 dog (SC 0.4 mg/kg)
3: number of dogs with sedation score 0 [6] | number of dogs with sedation score 1 [6]
2: number of dogs with sedation score 2 [4] | number of dogs with sedation score 0 (SC 0.4 mg/kg, 4 hr) | number of dogs with sedation score 0 (SC 0.4 mg/kg, 5 hr) | number of dogs with sedation score 1 (SC 0.4 mg/kg, 6 hr)
4: number of dogs with sedation score 1 [4] | number of dogs with sedation score 1 (SC 0.4 mg/kg, 4 hr) | number of dogs with sedation score 1 (SC 0.4 mg/kg, 5 hr) | number of dogs with sedation score 0 (SC 0.4 mg/kg, 6 hr)
